The values that follow come from ChEMBL document CHEMBL1250512, “Bile acid toxicity structure-activity relationships: correlations between cell viability and lipophilicity in a panel of new and known bile acids using an oesophageal cell line (HET-1A)” (Bioorg Med Chem, 2010).

As usually defined, the viability is a read-out of living cells in per cent, often relative to untreated cells. In general, CC50 refers to the concentration that lowers cell viability or growth by half.

Data set [1] in a line: Cytotoxicity against human HuH7 cells assessed as cell viability at 500 uM after 24 hrs by MTT assay relative to control. The format is cell-based, Huh-7. (Formazan colour is commonly taken as a measure of viable cells.)
Data set [2] can be described thus: Cytotoxicity against human HET-1A cells assessed as cell viability at 500 uM after 24 hrs by MTT assay relative to control. The format is cell-based.
The nature of data set [3]: Cytotoxicity against human HET-1A cells assessed as cell viability after 24 hrs by MTT assay. Type of data set: cell-based.
The nature of data set [4]: Cytotoxicity against human HET-1A cells assessed as cell viability at >1 mM after 24 hrs by MTT assay. Type of data set: cell-based.

With `C[C@H](CCC(=O)NCC(=O)O)[C@H]1CC[C@H]2[C@@H]3[C@H](O)C[C@@H]4C[C@H](O)CC[C@]4(C)[C@H]3C[C@H](O)[C@]12C` [GLYCOCHOLIC ACID], the viability at 24 h, 500 µM was determined as 87.7% in data set [1] and 105% in data set [2].

On to `C[C@H](CCC(=O)O)[C@H]1CC[C@H]2[C@@H]3[C@@H](N=[N+]=[N-])C[C@@H]4C[C@H](O)CC[C@]4(C)[C@H]3CC[C@]12C`, for which the CC50 at 24 h in data set [3] worked out at 99 µM. In addition, the figures for the viability at 24 h, 500 µM in data set [1] and in data set [2] were 64.1% and 29%, respectively.

Take `C[C@H](CCC(=O)O)[C@H]1CC[C@H]2[C@@H]3CC[C@@H]4C[C@H](O)CC[C@]4(C)[C@H]3C[C@@H](O)[C@]12C` [LAGODEOXYCHOLATE]: the CC50 at 24 h in data set [3] stood at 389 µM. Moreover, the viability at 24 h, 500 µM in data set [1] is 89%; in data set [2] it was 59%.

`C[C@H](CC(=O)O)[C@H]1CC[C@H]2[C@@H]3[C@@H](O)C[C@@H]4C[C@H](O)CC[C@]4(C)[C@H]3CC[C@]12C` [NORUCHOLIC ACID]: the viability at 24 h, 500 µM in data set [1] is 71.8%; in data set [2], 88.8%.

Consider `C[C@H](CCC(=O)O)[C@H]1CC[C@H]2[C@@H]3CC[C@@H]4C[C@H](N=[N+]=[N-])CC[C@]4(C)[C@H]3C[C@H](O)[C@]12C`, for which, in data set [3], the CC50 at 24 h is 71 µM. In addition, the viability at 24 h, 500 µM turned out to be 37.1% in data set [1] and 30.7% in data set [2].

Regarding `C[C@H](CCC(=O)O)[C@H]1CC[C@H]2[C@@H]3CC[C@@H]4C[C@H](O)CC[C@]4(C)[C@H]3CC(=O)[C@]12C`, the viability at 24 h, 500 µM in data set [1] worked out at 80.6%; in data set [2] it was 81.8%.

Take `C[C@H](CCC(=O)O)[C@H]1CC[C@H]2[C@@H]3CC[C@@H]4C[C@@H](N=[N+]=[N-])CC[C@]4(C)[C@H]3C[C@H](O)[C@]12C`: in data set [3], the CC50 at 24 h was 97 µM. The results for the viability at 24 h, 500 µM in data set [1] and in data set [2] were 108% and 35.4%, respectively.

For `CC(=O)O[C@@H]1CC[C@@]2(C)[C@H](CC(=O)[C@@H]3[C@@H]2CC[C@]2(C)[C@@H]([C@H](C)CCC(=O)O)CC[C@@H]32)C1`, the CC50 at 24 h in data set [3] is 366 µM. For the same compound, the viability at 24 h, 500 µM in data set [1] came to 77.7%; in data set [2] it was 47.2%.

In the case of `C[C@H](CCC(=O)O)[C@H]1CC[C@H]2[C@@H]3[C@@H](O)C[C@@H]4C[C@@H](N=[N+]=[N-])CC[C@]4(C)[C@H]3CC[C@]12C`, in data set [3], the CC50 at 24 h was 37 µM. Further, the viability at 24 h, 500 µM in data set [1] amounted to 101%; in data set [2], 30.3%.

On to `C[C@H](CCC(=O)O)[C@H]1CC[C@H]2[C@@H]3[C@H](O)C[C@@H]4C[C@H](O)CC[C@]4(C)[C@H]3CC[C@]12C` [CHENODIOL], for which the cytotoxic concentration (CC50) at 24 h in data set [3] was determined as 216 µM. Also, the viability at 24 h, 500 µM in data set [1] stood at 72.3%; in data set [2] it was 42.2%.

Regarding `C[C@H](CCC(=O)O)[C@H]1CC[C@H]2[C@@H]3CC[C@@H]4C[C@H](O)CC[C@]4(C)[C@H]3C[C@H](O)[C@]12C` [DEOXYCHOLIC ACID], the CC50 at 24 h in data set [3] worked out at 257 µM. Besides, the viability at 24 h, 500 µM in data set [1] is 57%; in data set [2] it was 41.2%.

Turning to `C[C@H](CCCO)[C@H]1CC[C@H]2[C@@H]3[C@@H](O)C[C@@H]4C[C@H](O)CC[C@]4(C)[C@H]3CC[C@]12C`, the viability at 24 h, 500 µM in data set [1] was found to be 44.5%; in data set [2], 97.5%.

As for `C[C@H](CCC(=O)O)[C@H]1CC[C@H]2[C@@H]3C[C@H](O)[C@@H]4C[C@H](O)CC[C@]4(C)[C@H]3CC[C@]12C` [HYODEOXYCHOLIC_ACID], the viability at 24 h, 500 µM in data set [1] turned out to be 73.8%; in data set [2], 88.2%.

Turning to `C[C@H](C(=O)O)[C@H]1CC[C@H]2[C@@H]3[C@@H](O)C[C@@H]4C[C@H](O)CC[C@]4(C)[C@H]3CC[C@]12C`, the CC50 at 24 h in data set [3] turned out to be 799 µM. Besides, the viability at 24 h, 500 µM in data set [1] turned out to be 74.8%; in data set [2] it was 80.5%.

Turning to `C[C@H](CCC(=O)O)[C@H]1CC[C@H]2[C@@H]3CC[C@@H]4C[C@H](O)CC[C@]4(C)[C@H]3CC[C@]12C` [LITHOCHOLIC ACID], the CC50 at 24 h in data set [3] turned out to be 25 µM. For the same compound, the results for the viability at 24 h, 500 µM in data set [1] and in data set [2] were 63.7% and 41.7%, respectively.

As to `COC(=O)CC[C@@H](C)[C@H]1CC[C@H]2[C@@H]3CC[C@@H]4C[C@H](O)CC[C@]4(C)[C@H]3C[C@H](O)[C@]12C` [METHYL DEOXYCHOLATE], the 50% cytotoxic concentration (CC50) at 24 h in data set [3] came to 46 µM. Further, the viability at 24 h, 500 µM is 48.8% in data set [1] and 28.1% in data set [2].

With `C[C@H](C#N)[C@H]1CC[C@H]2[C@@H]3[C@@H](O)C[C@@H]4C[C@H](O)CC[C@]4(C)[C@H]3CC[C@]12C`, the viability at 24 h, 500 µM in data set [1] is 87.3%; in data set [2], 80.5%.

Consider `C[C@H](CCC(=O)NCC(=O)O)[C@H]1CC[C@H]2[C@@H]3[C@@H](O)C[C@@H]4C[C@H](O)CC[C@]4(C)[C@H]3CC[C@]12C` [GLYCOURSODEOXYCHOLIC ACID], for which the values for the viability at 24 h, 500 µM in data set [1] and in data set [2] were 104% and 109%, respectively.

Regarding `C[C@H](CCC#N)[C@H]1CC[C@H]2[C@@H]3[C@@H](O)C[C@@H]4C[C@H](O)CC[C@]4(C)[C@H]3CC[C@]12C`, the viability at 24 h, 500 µM worked out at 85.2% in data set [1] and 94% in data set [2].

On to `COC(=O)CC[C@@H](C)[C@H]1CC[C@H]2[C@@H]3[C@@H](O)C[C@@H]4C[C@H](O)CC[C@]4(C)[C@H]3CC[C@]12C`, for which the viability at 24 h, 500 µM is 81.2% in data set [1] and 94.3% in data set [2].

For the compound `C[C@H](CCC(=O)O)[C@H]1CC[C@H]2[C@@H]3[C@@H](O)C[C@@H]4C[C@H](O)CC[C@]4(C)[C@H]3C[C@H](O)[C@]12C`, the viability at 24 h, 500 µM in data set [1] amounted to 82.3%; in data set [2] it was 80.8%.

Consider `C[C@H](CCC(=O)O)[C@H]1CC[C@H]2[C@@H]3[C@H](O)C[C@@H]4C[C@H](O)CC[C@]4(C)[C@H]3C[C@H](O)[C@]12C` [CHOLIC ACID], for which, in data set [3], the CC50 at 24 h worked out at 1080 µM. Moreover, the figures for the viability at 24 h, 500 µM in data set [1] and in data set [2] were 90.8% and 102%, respectively.

As to `C[C@H](CCC(=O)O)[C@H]1CC[C@H]2[C@@H]3C(=O)C[C@@H]4CC(=O)CC[C@]4(C)[C@H]3CC(=O)[C@]12C` [DEHYDROCHOLIC ACID], the viability at 24 h, 500 µM in data set [1] worked out at 54.4%; in data set [2] it was 111%.

Consider `C[C@H](CCC(=O)O)[C@H]1CC[C@H]2[C@@H]3[C@@H](O)C[C@@H]4C[C@H](N=[N+]=[N-])CC[C@]4(C)[C@H]3CC[C@]12C`, for which, in data set [3], the CC50 at 24 h was 45 µM. Besides, the viability at 24 h, 500 µM in data set [1] is 26.6%; in data set [2] it was 36.8%.

In the case of `C[C@H](CCCN=[N+]=[N-])[C@H]1CC[C@H]2[C@@H]3[C@@H](O)C[C@@H]4C[C@H](O)CC[C@]4(C)[C@H]3CC[C@]12C`, the CC50 at 24 h in data set [3] turned out to be 688 µM. The viability at 24 h, 500 µM in data set [1] was 45.1%; in data set [2], 75.9%.

As for `C[C@H](CCC(=O)NCC(=O)O)[C@H]1CC[C@H]2[C@@H]3[C@H](O)C[C@@H]4C[C@H](O)CC[C@]4(C)[C@H]3CC[C@]12C` [GLYCOCHENODEOXYCHOLATE], the CC50 at 24 h in data set [3] stood at 729 µM. The viability at 24 h, 500 µM in data set [1] is 105%; in data set [2] it was 130%. Also, in data set [4], the Activity entry was “Toxic”.

As to `C[C@H](CCC(N)=O)[C@H]1CC[C@H]2[C@@H]3CC[C@@H]4C[C@H](O)CC[C@]4(C)[C@H]3C[C@H](O)[C@]12C`, the CC50 at 24 h in data set [3] came to 39 µM. The viability at 24 h, 500 µM came to 25.2% in data set [1] and 38.6% in data set [2].

As for `C[C@H](CCC(=O)O)[C@H]1CC[C@H]2[C@@H]3[C@@H](O)C[C@@H]4CCCC[C@]4(C)[C@H]3CC[C@]12C`, the 50% cytotoxic concentration (CC50) at 24 h in data set [3] was 30 µM. Besides, the results for the viability at 24 h, 500 µM in data set [1] and in data set [2] were 23.7% and 39.9%, respectively.

For the compound `C[C@H](CCC(=O)O)[C@H]1CC[C@H]2[C@@H]3C(=O)C[C@@H]4C[C@H](O)CC[C@]4(C)[C@H]3CC[C@]12C`, the results for the viability at 24 h, 500 µM in data set [1] and in data set [2] were 75.6% and 76.9%, respectively.

`C[C@H](CCC(=O)NCC(=O)O)[C@H]1CC[C@H]2[C@@H]3CC[C@@H]4C[C@H](O)CC[C@]4(C)[C@H]3C[C@H](O)[C@]12C` [GLYCODEOXYCHOLATE]: the half-maximal cytotoxic concentration (CC50) at 24 h in data set [3] is 1240 µM. Besides, the viability at 24 h, 500 µM was determined as 105% in data set [1] and 111% in data set [2]. In data set [4], the Activity result was “Toxic”.

As to `C[C@H](CCC(=O)O)[C@H]1CC[C@H]2[C@@H]3C(=O)C[C@@H]4CC(=O)CC[C@]4(C)[C@H]3CC[C@]12C`, the viability at 24 h, 500 µM in data set [1] was 54.6%; in data set [2], 93.5%.

`C[C@H](CCC(=O)O)[C@H]1CC[C@H]2[C@@H]3[C@@H](O)C[C@@H]4C[C@H](O)CC[C@]4(C)[C@H]3CC[C@]12C` [URSODIOL]: the CC50 at 24 h in data set [3] was 1310 µM. Besides, the viability at 24 h, 500 µM is 74% in data set [1] and 78.8% in data set [2].
